Results on three molecules are retold here after patent US7358245B2, “Treatment of gastroesophageal reflux disease” (AstraZenca AB, priority 2001, dated 2008).

The subject of this assay is transient lower esophageal sphincter relaxations (TLESRs). Description: Screening for compounds active against TLESR (motility measurement in dogs). In kind it is in vivo, Adult Labrador retrievers (dog). Particulars: vs five preceding control experiments for each dog. The protocol: Adult Labrador retrievers of both genders, trained to stand in a Pavlov sling, are used. Mucosa-to-skin esophagostomies are formed and the dogs are allowed to recover completely before any experiments are done.
In brief, after fasting for approximately 17 h with free supply of water, a multilumen sleeve/sidehole assembly (Dentsleeve, Adelaide, South Australia) is introduced through the esophagostomy to measure gastric, lower esophageal sphincter (LES) and esophageal pressures. The assembly is perfused with water using a low-compliance manometric perfusion pump (Dentsleeve, Adelaide, South Australia). An air-perfused tube is passed in the oral direction to measure swallows, and an antimony electrode monitored pH, 3 cm above the LES. All signals are amplified and acquired on a personal computer at 10 Hz.
When a baseline measurement free from fasting gastric/LES phase III motor activity has been obtained, placebo (0.9% NaCl) or test compound is administered intravenously (i.v., 0.5 ml/kg) in a foreleg vein. Ten min after i.v. administration, a nutrient meal (10% peptone, 5% D-glucose, 5% Intralipid, pH 3.0) is infused into the stomach through the central lumen of the assembly at 100 ml/min to a final volume of 30 ml/kg. Immediately following the meal, air is insufflated at 40 ml/min. The experimental time from start of nutrient infusion to end of air insufflation is 45 min. The procedure has been validated as a reliable means of triggering TLESRs.
TLESRs is defined as a decrease in lower esophageal sphincter pressure (with reference to intragastric pressure) at a rate of >1 mmHg/s. The relaxation should not be preceded by a pharyngeal signal ≦2 s before its onset in which case the relaxation is classified as swallow-induced. The pressure difference between the LES and the stomach should be less than 2 mmHg, and the duration of the complete relaxation longer than 1 s.
The aminoalkylindole cannabinoid WIN 55,212-2, purchased from Tocris Cookson (Bristol, U.K.), was tested on Adult Labrador retrievers of both genders in accordance with the test model described above.
Inhibition of the number of TLESRs was calculated with regard to the five preceding control experiments for each dog, and the results as set out in Table 1 below were achieved.

As for `COc1ccc2c(c1)c(CCN1CCOCC1)c(C)n2C(=O)c1cccc(Cl)c1Cl` [L-768,242, (2,3-dichloro-phenyl)-[5-methoxy-2-methyl-3-(2-morpholin-4-yl-ethyl)-indol-1-yl]-methanone], the “% INHIBITION ± SEM (N) of the number of TLESRs” value is on record as 8 ± 21 (4) % (dose 0.3 μmol/kg i.v.), 44 ± 6 (5) % (dose 1 μmol/kg i.v.), 63 ± 5 (4) % (dose 5 μmol/kg i.v.) and 76 ± 12 (3) % (dose 7 μmol/kg i.v.).
For the molecule `Cc1c(C(=O)NN2CCCCC2)nn(-c2ccc(Cl)cc2Cl)c1-c1ccc(Cl)cc1` [SR141716A], the “% STIMULATION ± SEM (N) of the number of TLESRs” value (dose 0.22 μmol/kg i.v.) is 43 ± 16 (6) %.
Consider `Cc1c(C(=O)c2cccc3ccccc23)c2cccc3c2n1[C@H](CN1CCOCC1)CO3` [WIN 55,212-2, (2-methyl-3-morpholin-4-ylmethyl-3,4-dihydro-5-oxa-2a-aza-acenaphthylen-1-yl)-naphthalen-1-yl-methanone], for which the “% INHIBITION ± SEM (N) of the number of TLESRs” value was 20 ± 18 (4) % (dose 0.003 mg/kg i.v.), 70 ± 10 (4) % (dose 0.01 mg/kg i.v.) and 82 ± 1 (4) % (dose 0.03 mg/kg i.v.).
